# Assay results as given in ChEMBL document CHEMBL1201862, “PubChem BioAssay data set” (2004).
# Where a name gives a salt, the structure may show the parent alone. Activity calls are given as the source filed them.
# How the values were obtained:
# [1] = Luminescence Cell-Based Dose Confirmation HTS to Identify Inhibitors of Platelet Dense Granule Release. [Related pubchem assays: 1663 (Primary HTS), 1678 (Summary of Project)]; format: functional
# [2] = target: Luciferin 4-monooxygenase (Photinus pyralis, UniProt P08659); test: firefly luciferase enzyme inhibitors, dose response, biochemical, luminescence (AID 1891)
# Fatty acid synthase [3] = target: T1, Fatty acid synthase (Homo sapiens, UniProt P49327); test: FAS thioesterase domain inhibitors, dose response, biochemical, endpoint fluorescence intensity, uHTS hits (AID 624327); format: functional;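 also: fluorescence from hydrolysis of an O-methyl fluorescein acyl ester substrate by the enzyme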
# Fatty acid synthase [4] = target: T1, Fatty acid synthase; test: FAS thioesterase domain inhibitors, dose response, biochemical, kinetic fluorescence intensity (AID 624326); format: functional;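 also: rate of fluorescence rise from hydrolysis of a fluorogenic O-methyl fluorescein ester substrate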
# [5] = target: T2, Mannose-6-phosphate isomerase (Homo sapiens, UniProt P34949); test: human PMI inhibitors, high substrate, primary screen, biochemical, fluorescence intensity, high mannose 6-phosphate (AID 1220)
# T2 sequence (P34949 whole entry): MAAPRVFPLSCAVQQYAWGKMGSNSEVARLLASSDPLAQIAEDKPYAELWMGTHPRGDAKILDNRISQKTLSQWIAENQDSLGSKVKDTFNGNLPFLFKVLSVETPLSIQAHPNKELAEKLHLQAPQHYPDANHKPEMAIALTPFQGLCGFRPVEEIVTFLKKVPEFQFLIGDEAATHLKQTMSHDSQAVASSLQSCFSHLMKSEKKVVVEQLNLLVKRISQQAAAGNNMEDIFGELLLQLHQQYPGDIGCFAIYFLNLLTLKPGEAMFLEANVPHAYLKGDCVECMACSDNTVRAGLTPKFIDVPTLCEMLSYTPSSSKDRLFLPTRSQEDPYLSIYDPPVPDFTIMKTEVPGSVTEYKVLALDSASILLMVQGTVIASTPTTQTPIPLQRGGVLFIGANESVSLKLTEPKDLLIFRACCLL
# [6] = target: T3, Carboxy-terminal domain RNA polymerase II polypeptide A small phosphatase 1 (Homo sapiens, UniProt Q9GZU7); test: inhibitors of CTDSP1, concentration-response testing, biochemical assay, absorbance-based, actives from ultra-high-throughput screening (AID 540297); format: functional
# T3 sequence (Q9GZU7 whole entry): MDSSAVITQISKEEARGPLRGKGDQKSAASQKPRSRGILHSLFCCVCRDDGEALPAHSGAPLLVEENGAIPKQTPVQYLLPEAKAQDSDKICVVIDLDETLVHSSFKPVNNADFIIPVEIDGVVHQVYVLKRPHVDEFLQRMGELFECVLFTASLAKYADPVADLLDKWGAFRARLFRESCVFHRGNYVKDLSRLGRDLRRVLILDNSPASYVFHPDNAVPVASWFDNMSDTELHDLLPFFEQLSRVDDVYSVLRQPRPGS
# [7] = target: T4, RNA-binding protein pos-1 (Caenorhabditis elegans, UniProt G5EF15); test: inhibitors of POS-1/mex-3 RNA binding, dose response, biochemical, fluorescence polarization (AID 1964);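 also: purified POS-1 fused to maltose binding protein made in E. coli; potency of compounds blocking POS-1 binding to fluorescent RNA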
# T4 sequence (G5EF15 whole entry): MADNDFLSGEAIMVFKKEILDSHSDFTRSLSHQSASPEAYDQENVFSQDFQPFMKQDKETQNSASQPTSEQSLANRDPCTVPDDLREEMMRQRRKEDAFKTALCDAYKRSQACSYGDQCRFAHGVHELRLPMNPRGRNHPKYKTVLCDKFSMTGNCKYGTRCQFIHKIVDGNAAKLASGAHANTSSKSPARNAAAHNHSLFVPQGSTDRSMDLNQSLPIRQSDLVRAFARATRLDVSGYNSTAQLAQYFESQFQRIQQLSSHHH
# [8] = target: T5, Zinc finger protein mex-5 (Caenorhabditis elegans, UniProt Q9XUB2); test: MEX-5/TCR-2 RNA interaction inhibitors, dose response, biochemical, C. elegans, fluorescence polarization (AID 1960)
# T5 sequence (Q9XUB2 whole entry): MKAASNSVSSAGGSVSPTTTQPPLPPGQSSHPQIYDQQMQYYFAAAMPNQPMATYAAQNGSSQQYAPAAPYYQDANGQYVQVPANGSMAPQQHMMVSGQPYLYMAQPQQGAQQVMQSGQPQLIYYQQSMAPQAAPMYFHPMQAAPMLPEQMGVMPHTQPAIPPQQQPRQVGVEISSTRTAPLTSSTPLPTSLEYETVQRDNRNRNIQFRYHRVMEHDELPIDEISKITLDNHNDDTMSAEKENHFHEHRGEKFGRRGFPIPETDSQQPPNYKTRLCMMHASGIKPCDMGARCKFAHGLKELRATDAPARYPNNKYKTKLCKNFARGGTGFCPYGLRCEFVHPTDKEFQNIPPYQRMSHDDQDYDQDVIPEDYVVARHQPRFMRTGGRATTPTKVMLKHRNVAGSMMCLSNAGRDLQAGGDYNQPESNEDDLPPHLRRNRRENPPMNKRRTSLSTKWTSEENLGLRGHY
# [9] = P. falciparum Dd2 growth inhibitors, dose response, SYBR Green, cherry-picked samples (AID 1159567); format: functional, cell-based
# [10] = target: T6, Corticotropin-releasing factor receptor 2/Corticotropin-releasing factor-binding protein (Homo sapiens, UniProt P24387+Q13324); test: Dose Response confirmation of uHTS hits for small molecule antagonists of the CRF-binding protein and CRF-R2 receptor complex.; format: functional; details: read-out: IC50_Mean
# T6 sequence (Q13324 whole entry): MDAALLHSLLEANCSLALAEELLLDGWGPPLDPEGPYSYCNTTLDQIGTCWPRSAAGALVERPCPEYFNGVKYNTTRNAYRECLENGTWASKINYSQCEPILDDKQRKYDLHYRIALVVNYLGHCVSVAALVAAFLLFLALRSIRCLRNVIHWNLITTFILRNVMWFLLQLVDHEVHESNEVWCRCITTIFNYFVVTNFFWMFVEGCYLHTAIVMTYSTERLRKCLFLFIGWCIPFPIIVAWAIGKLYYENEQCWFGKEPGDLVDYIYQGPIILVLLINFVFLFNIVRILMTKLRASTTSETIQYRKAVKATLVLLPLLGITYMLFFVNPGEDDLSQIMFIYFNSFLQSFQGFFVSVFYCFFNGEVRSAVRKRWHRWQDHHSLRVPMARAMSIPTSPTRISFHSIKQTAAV
# T6 sequence (P24387 whole entry): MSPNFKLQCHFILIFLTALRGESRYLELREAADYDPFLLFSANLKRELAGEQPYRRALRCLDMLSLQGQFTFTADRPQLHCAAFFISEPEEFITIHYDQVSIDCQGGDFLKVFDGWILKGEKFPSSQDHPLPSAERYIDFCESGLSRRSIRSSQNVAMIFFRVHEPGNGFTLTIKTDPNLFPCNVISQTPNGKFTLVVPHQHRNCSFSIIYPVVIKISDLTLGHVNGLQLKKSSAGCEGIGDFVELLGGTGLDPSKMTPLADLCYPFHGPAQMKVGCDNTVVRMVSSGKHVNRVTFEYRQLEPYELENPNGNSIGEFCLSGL
# [11] = target: T6, Corticotropin-releasing factor receptor 2/Corticotropin-releasing factor-binding protein; test: activators of CRF receptor 2 with binding protein – uHTS hits, confirmation (AID 602473); format: functional; details: read-out: EC50_Mean
# H9c2 = test: cells; format: functional, cell-based; details: Rattus norvegicus, H9c2, Myocardium;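 also: confirmatory concentration-response retest of ultra-high-throughput screening hits for modulation of myocardial damage; cell death induced by hydrogen peroxide oxidative stress; compound pretreatment for 60 min then peroxide exposure for 2 h; potency is for protecting the cells against peroxide damage rather than for killing them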
# [12] = HEK293T cytotoxicity, dose response, cytotoxicity control for miR-122 modulator project, cell-based, inhibitor set, cherry-pick, set 2 (AID 720697); format: functional
# [13] = target: T7, Ubiquitin-conjugating enzyme E2 N (Homo sapiens, UniProt P61088); format: functional;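 also: Dose-response confirmation in a TR-FRET assay detecting UBC13-driven polyubiquitin chain formation, inhibition measured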
# T7 sequence (P61088 whole entry): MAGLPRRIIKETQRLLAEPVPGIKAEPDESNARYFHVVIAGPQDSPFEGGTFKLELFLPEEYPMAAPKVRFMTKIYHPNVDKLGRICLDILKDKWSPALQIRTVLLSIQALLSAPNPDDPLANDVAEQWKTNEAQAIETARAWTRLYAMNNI
# cells [14] = format: functional, cell-based
# Caspase-6 = target: T8, Caspase-6 (Homo sapiens, UniProt P55212); test: human caspase-6 inhibitors, dose response, biochemical, VEID-R110 fluorescence, cherry-pick (AID 720632)
# T8 sequence (P55212 whole entry): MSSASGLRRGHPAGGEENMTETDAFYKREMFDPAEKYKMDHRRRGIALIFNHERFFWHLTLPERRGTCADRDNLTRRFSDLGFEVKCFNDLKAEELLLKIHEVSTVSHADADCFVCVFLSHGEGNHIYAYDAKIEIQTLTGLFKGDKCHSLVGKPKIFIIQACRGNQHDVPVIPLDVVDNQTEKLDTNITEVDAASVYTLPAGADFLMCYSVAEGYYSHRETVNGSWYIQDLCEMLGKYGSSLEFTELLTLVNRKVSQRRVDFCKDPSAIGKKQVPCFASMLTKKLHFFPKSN
# cells [15] = format: functional, cell-based; remark: listed apart in the source
# [16] = target: T9, DNA repair protein RAD52 homolog (Homo sapiens, UniProt P43351); format: functional, biochemical
# T9 sequence (P43351 whole entry): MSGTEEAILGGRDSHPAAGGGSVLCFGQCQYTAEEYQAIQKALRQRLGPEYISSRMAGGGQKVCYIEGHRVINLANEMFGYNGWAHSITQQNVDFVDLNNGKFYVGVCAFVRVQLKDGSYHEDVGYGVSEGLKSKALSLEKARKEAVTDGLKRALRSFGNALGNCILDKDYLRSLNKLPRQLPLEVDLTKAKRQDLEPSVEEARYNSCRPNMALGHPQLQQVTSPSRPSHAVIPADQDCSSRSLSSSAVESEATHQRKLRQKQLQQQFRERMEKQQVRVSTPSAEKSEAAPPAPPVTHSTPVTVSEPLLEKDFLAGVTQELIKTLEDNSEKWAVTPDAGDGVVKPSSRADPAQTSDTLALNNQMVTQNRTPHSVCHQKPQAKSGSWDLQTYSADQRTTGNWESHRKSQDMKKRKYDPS
# Cytochrome P450 2C9 = Cytochrome P450 2C9 (Homo sapiens, UniProt P11712)
# Chain of Cytochrome P450 2C9 (P11712 whole entry): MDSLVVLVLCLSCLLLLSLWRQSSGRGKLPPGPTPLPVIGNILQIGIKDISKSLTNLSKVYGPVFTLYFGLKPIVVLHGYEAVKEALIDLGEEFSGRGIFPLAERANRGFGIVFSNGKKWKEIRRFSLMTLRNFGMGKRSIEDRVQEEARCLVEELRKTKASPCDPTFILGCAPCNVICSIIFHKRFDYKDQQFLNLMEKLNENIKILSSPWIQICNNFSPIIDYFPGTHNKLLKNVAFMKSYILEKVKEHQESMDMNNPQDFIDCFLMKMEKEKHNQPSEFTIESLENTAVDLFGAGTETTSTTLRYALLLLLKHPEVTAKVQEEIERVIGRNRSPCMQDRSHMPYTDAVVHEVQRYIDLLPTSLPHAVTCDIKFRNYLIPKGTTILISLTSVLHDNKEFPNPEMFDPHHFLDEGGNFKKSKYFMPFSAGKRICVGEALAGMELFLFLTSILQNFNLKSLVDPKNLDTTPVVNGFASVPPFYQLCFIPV
# Chain of Luciferin 4-monooxygenase (P08659 whole entry, the tested form may be a part): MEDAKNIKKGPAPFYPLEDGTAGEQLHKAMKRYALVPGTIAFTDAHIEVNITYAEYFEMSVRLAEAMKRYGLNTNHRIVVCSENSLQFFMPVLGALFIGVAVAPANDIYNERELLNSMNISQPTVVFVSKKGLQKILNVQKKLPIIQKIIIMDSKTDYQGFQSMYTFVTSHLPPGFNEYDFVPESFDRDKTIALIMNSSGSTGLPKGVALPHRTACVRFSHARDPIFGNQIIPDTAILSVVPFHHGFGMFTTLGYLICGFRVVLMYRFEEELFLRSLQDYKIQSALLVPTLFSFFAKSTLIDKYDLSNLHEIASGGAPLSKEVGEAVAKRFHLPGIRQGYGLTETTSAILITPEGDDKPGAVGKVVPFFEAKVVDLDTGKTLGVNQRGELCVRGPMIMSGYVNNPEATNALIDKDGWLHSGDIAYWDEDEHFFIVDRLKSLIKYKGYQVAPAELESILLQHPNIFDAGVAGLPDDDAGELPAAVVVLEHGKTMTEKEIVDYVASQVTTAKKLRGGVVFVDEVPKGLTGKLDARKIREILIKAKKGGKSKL
# T1 sequence (P49327 whole entry, the tested form may be a part): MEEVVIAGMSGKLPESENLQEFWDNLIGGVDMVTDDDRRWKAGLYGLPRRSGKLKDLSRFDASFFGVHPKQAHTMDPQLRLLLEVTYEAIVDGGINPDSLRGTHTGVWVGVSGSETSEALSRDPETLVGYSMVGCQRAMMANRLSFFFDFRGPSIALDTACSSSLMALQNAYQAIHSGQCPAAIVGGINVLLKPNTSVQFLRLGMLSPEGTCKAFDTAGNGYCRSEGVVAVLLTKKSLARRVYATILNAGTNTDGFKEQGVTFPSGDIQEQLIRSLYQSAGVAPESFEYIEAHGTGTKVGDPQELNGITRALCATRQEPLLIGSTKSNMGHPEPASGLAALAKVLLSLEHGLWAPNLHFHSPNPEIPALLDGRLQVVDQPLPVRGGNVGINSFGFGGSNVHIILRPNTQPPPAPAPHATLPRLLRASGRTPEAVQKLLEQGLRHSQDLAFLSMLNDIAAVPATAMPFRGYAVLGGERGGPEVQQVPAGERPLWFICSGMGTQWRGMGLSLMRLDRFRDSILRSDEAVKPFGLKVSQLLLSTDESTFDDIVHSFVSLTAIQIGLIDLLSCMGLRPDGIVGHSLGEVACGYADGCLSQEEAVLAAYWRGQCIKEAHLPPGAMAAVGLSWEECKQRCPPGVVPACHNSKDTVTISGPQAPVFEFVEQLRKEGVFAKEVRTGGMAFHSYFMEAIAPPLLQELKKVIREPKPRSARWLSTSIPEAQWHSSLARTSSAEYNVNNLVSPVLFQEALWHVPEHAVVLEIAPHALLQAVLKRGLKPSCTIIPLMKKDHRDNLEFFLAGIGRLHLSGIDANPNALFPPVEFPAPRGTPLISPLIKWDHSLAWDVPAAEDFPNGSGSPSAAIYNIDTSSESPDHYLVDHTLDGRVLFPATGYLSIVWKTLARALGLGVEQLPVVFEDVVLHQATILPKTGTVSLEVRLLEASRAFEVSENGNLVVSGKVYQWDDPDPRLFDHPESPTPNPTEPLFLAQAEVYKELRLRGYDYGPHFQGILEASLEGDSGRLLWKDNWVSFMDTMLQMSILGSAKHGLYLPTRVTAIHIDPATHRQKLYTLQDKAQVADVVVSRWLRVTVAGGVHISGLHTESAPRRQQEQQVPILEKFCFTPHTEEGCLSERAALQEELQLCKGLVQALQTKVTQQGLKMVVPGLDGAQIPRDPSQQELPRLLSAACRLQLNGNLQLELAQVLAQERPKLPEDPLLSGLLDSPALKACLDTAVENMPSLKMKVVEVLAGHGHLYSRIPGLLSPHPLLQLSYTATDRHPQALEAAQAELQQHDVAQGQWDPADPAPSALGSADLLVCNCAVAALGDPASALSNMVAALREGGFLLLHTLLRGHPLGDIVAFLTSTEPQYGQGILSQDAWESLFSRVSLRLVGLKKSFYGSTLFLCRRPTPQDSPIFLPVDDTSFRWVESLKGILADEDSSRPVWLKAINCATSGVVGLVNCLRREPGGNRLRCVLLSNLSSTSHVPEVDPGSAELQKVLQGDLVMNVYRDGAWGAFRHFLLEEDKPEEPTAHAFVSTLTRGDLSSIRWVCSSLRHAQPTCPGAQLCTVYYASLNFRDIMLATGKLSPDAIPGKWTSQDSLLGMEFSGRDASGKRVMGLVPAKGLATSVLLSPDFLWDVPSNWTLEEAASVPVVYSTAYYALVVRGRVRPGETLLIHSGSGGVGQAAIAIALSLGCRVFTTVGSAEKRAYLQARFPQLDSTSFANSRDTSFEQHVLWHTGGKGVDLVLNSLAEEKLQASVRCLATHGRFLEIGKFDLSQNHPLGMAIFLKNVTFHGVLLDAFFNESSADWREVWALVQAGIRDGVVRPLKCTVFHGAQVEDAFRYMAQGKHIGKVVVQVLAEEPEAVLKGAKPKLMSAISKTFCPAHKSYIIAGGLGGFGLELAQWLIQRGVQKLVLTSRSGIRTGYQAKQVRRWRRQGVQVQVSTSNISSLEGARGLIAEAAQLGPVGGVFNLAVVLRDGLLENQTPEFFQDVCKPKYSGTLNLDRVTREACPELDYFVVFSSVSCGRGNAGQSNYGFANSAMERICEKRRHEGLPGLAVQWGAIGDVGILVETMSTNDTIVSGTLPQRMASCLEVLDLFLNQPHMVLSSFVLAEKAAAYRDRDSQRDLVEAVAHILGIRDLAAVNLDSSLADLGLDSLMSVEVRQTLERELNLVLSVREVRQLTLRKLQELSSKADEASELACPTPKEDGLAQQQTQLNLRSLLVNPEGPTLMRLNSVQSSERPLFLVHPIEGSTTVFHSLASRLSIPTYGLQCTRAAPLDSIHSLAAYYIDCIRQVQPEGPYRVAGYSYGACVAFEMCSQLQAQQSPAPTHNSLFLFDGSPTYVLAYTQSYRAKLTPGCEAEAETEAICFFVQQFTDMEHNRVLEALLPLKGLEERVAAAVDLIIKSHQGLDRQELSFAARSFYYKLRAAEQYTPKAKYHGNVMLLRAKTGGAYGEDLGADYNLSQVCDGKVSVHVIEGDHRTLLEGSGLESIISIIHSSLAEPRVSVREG
compound,measurement,setting,value
Cc1nc2cc(NC(=O)Nc3ccccc3Cl)ccc2n1C,EC50,[1],5.86 µM (active)
same,EC50,[2],5.05 µM (active)
Cc1cc(Cl)ccc1NC(=O)COC(=O)c1cc([N+](=O)[O-])ccc1N1CCOCC1,IC50,Fatty acid synthase [3],2.55 µM (active)
same,IC50,Fatty acid synthase [4],2.13 µM (active)
CC1(C(=O)NS(=O)(=O)c2ccc(C#N)cc2)CCN1C(=O)Cc1ccc(Cl)cc1Cl (stereo not drawn),IC50,Fatty acid synthase [3],10.1 µM (active)
same,IC50,Fatty acid synthase [4],5.77 µM (active)
Oc1ccc(/C=N/N(Cc2ccccc2)c2ccccc2)c(O)c1O,IC50,[5],> 50 µM (not active)
Cc1cc(/C=C2\C(=O)NC(=O)N(c3ccc(Cl)cc3)C2=O)c(C)n1-c1cccc(C(=O)O)c1,IC50,[6],9.6 µM (active)
same,EC50,[7],> 300 µM (not active)
same,EC50,[8],65.9 µM (active)
O=C(C[C@H]1C[C@@H]2c3cc(NC(=O)Nc4ccccc4)ccc3O[C@@H]2[C@H](CO)O1)NCc1ccccc1,AC50,[9],12.4 µM (active)
COCCN1C(=O)c2oc3ccccc3c(=O)c2C1c1ccc(OC)c(OC)c1 (stereo not drawn),IC50,[6],5.26 µM (active)
O=C/C(=C\Nc1ccccn1)c1nc2cc(Cl)ccc2o1,IC50,[10],> 47.1 µM (inactive)
same,EC50,[7],67.7 µM (active)
same,EC50,[8],36.4 µM (active)
same,EC50,[11],> 53 µM (inactive)
same,IC50,H9c2,> 79 µM (inactive)
CCC(=O)/N=c1\sc2cc(F)cc(F)c2n1C,EC50,[1],> 112 µM (not active)
same,EC50,[2],> 112 µM (not active)
CCN(C(=S)Nc1cccnc1)c1cccc2ccccc12,IC50,[5],> 50 µM (not active)
O=C(Cc1ccc(-n2c(=O)c3ccccc3n(Cc3ccc(F)cc3)c2=O)cc1)NCC1CCCO1 (stereo not drawn),EC50,[1],> 112 µM (not active)
same,EC50,[2],> 112 µM (not active)
Cc1c(C(=O)O)c(C(=O)O)nc2ccc(N3CCOCC3)cc12,IC50,[5],> 50 µM (not active)
CN1CCN(/C=C2\SC(=S)NC2=O)CC1,EC50,[1],> 112 µM (not active)
same,EC50,[2],> 112 µM (not active)
CCC(=O)N1[C@H](CN(C)C(C)=O)[C@H](c2ccc(-c3cccnc3)cc2)[C@@H]1CO,AC50,[12],0.561 µM (active)
CC(C)n1c(NCc2cc(Cl)ccc2O)nc2ccccc21,IC50,[13],> 20 µM (inactive)
COC(=O)c1cc(C(=O)OCC(=O)NC2CCCC2)cc([N+](=O)[O-])c1,IC50,Fatty acid synthase [3],8.82 µM (active)
same,IC50,Fatty acid synthase [4],9.42 µM (active)
Cc1ccc(S(=O)(=O)NC2=NC(=O)/C(=C/c3cc([N+](=O)[O-])ccc3O)S2)cc1,EC50,cells [14],> 350 µM (not active)
same,AC50,Caspase-6,10.7 µM (active)
same,EC50,cells [15],53.1 µM (active)
COc1ccc(-c2cc3ccccc3oc2=O)cc1NC(=S)NC(=O)c1ccc2c(c1)OCCO2,IC50,[13],> 20 µM (inactive)
CSc1ccc2c(c1)C(N1CCN(C)CC1)Cc1ccccc1S2 (stereo not drawn) [METHIOTHEPIN MESYLATE],AC50,[16],18.7 µM (active)
same,IC50,[13],> 20 µM (inactive)
CCOC(=O)CCCSc1nnc(CCCCCN2C(=O)c3cccc4cccc(c34)C2=O)o1,IC50,[13],> 20 µM (inactive)
Fc1ccccc1Nc1nc2c(s1)CCc1ccccc1-2,IC50,[5],> 50 µM (not active)
O=C(Nc1cccc([N+](=O)[O-])c1)N1CCc2ccccc2C1,IC50,Fatty acid synthase [3],8.71 µM (active)
same,IC50,Fatty acid synthase [4],6.26 µM (active)
C[N+]1(CCOc2ccc([N+](=O)[O-])cc2)CCOCC1.[I-],IC50,[6],4.86 µM (active)
same,AC50,Cytochrome P450 2C9,inconclusive
CCCNC(=O)Nc1ccc2c(c1)C(=O)N(C)[C@@H]1CC[C@@H](CC(=O)NCC3CCCCC3)O[C@H]1CO2,AC50,[12],2.28 µM (active)
O=C(COC(=O)c1cccnc1Cl)NCc1ccco1,IC50,[6],12.4 µM (active)
O=C1CC(c2cccc([N+](=O)[O-])c2)c2cc3c(cc2N1)CCC3 (stereo not drawn),IC50,Fatty acid synthase [3],10.9 µM (active)
same,IC50,Fatty acid synthase [4],15.9 µM (active)
Cc1cc(C)cc(NC(=O)c2cc(S(=O)(=O)N3CCCC3)cn2C)c1,EC50,[1],> 112 µM (not active)
same,EC50,[2],> 112 µM (not active)
CCC1(c2ccccc2)NC(=O)N(CC(=O)Nc2cc(Cl)ccc2N2CCN(C)CC2)C1=O (stereo not drawn),IC50,[13],> 20 µM (inactive)
